The target in one series is T1, USP1 (Homo sapiens, UniProt O94782).
T1 construct: endogenous in cells; host or cells: HeLa
Nature of the series: Ub-vinyl sulfone conjugation of USP1 in lysates of compound-treated HeLa cells. It counts as cell-based. The procedure:
In one set of experiments, HeLa cells were incubated in the presence of 50 μM of selected inhibitors including the compound of Formula III (933) and the compound of Formula IV (527) for 2, 4, or 6 hours, followed by cell lysis. […] Lysates were incubated with the Ub-vinyl sulfone (Ub-Vs) reagent for 40 minutes. Proteins were electrophoresed on SDS-PAGE, transferred to nitrocellulose, and immunoblotted with the anti-USP1 antibody.
HeLa cells were incubated with the compound of Formula IV (527) for eight hours, followed by cell lysis and incubation of protein extract with Ub-vinyl sulfone.

The subject of the next series is HeLa cells. The series is described as follows: sensitization of HeLa cells to mitomycin C, cell survival by redox dye. The conditions noted are these: 20 micromolar compound; MMC 0, 200, or 500 nM; FIG. 4. It counts as cell-based, human. As for the experimental part:
HeLa cells were pretreated for six hours with selected concentrations (0, 200, or 500 nM) of mitomycin C (MMC), washed, then exposed to selected concentrations (0, 10, or 20 μM) of the compound of Formula IV (527) for eight hours. Cell survival was measured by redox dye.

For a further series, the target named is T2, UCH-L3 (Homo sapiens, UniProt P15374).
T2 sequence (P15374 1-230): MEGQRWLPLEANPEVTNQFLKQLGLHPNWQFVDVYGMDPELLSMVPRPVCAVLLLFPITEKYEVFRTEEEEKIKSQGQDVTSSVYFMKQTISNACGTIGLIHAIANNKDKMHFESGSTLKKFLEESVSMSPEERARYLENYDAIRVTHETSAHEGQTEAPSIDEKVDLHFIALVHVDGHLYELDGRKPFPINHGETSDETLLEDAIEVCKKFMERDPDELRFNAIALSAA
The series is described as follows: deubiquitinating enzyme assay with UCH-L3. The class given is biochemical. The conditions noted are these: in vitro. The procedure: The in vitro enzymatic assays were performed using purified proteins from Sf9 cells as described previously (Cohn et al.). The assays using ubiquitin-AMC (Ub-7-amido-4-methylcoumarin; Boston Biochem) as substrate was carried out in a reaction buffer containing 20 mM HEPES-KOH (pH 7.8), 20 mM NaCl, 0.1 mg/ml ovalbumin, 0.5 mM EDTA and 10 mM dithiothreitol. The fluorescence was measured by FluoStar Galaxy Fluorometer (BMG Labtech). For the Ub-vinylsulfone (VS) assay, the proteins were incubated with Ub-VS at 0.5 μM final concentration for 1 h at 30° C., followed by the immunoblotting analysis.
To examine the specificity of C527 in USP1/UAF1 inhibition, its ability to inhibit other DUB enzymes in vitro was examined. […] Moreover, the active complex of USP12 contains an additional WD40 subunit (WDR20). […] UCH-L1 and UCH-L3 are members of a different subclass of deubiquitinating enzymes, referred to as the ubiquitin-carboxy terminal hydrolases (Mermerian A H, Case A, Stein R L, Cuny G D. Structure-activity relationship, kinetic mechanism, and selectivity for a new class of ubiquitin C-terminal hydrolase-L1 (UCH-L1) inhibitors. Bioorg Med Chem Lett. 2007; 17:3729-3732). […] Taken together, C527 is a pan-deubiquitinating enzyme inhibitor in vitro, though it has some specificity for the USP subfamily of DUBs, compared to the UCH subfamily.

The structures appear in SMILES notation.

T1 sequence (O94782 whole entry): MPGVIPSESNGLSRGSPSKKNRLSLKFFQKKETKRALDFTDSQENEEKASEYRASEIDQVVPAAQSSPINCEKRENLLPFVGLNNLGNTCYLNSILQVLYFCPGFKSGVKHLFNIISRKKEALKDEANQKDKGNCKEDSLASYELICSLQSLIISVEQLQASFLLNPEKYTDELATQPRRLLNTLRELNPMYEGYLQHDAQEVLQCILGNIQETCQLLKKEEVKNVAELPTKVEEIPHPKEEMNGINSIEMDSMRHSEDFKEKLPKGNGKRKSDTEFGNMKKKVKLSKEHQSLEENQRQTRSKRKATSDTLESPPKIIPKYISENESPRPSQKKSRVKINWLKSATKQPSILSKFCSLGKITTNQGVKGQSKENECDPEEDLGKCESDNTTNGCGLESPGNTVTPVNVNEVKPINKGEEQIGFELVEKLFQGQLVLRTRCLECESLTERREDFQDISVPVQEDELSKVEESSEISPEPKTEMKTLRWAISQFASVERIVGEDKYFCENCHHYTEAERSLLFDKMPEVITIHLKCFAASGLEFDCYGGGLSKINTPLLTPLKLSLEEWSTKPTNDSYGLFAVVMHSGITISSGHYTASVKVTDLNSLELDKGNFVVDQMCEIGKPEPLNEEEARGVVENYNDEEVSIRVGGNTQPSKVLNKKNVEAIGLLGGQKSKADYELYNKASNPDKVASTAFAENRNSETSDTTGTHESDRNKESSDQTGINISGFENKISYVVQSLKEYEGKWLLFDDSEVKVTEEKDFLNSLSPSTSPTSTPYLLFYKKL
T1 sequence (Q8TAF3 whole entry partner): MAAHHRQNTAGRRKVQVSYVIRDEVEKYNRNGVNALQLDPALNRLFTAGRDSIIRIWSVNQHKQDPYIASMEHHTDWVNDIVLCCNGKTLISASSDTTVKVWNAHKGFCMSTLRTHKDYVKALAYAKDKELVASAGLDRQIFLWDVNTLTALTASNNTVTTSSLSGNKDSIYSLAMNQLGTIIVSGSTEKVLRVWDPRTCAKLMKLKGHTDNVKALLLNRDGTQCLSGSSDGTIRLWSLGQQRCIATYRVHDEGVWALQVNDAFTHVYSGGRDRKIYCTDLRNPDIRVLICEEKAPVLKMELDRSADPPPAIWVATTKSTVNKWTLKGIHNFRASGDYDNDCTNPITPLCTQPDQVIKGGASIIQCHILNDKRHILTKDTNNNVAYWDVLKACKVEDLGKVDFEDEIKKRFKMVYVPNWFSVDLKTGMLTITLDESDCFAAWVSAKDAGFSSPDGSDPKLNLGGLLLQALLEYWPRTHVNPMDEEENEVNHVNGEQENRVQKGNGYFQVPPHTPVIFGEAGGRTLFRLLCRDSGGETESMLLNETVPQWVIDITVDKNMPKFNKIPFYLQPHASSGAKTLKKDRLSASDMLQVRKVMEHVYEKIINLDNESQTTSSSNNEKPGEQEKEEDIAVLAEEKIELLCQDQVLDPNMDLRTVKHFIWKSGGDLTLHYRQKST

On to `O=C1c2ccccc2C(=O)c2oc(-c3ccc(F)cc3)nc21` [Formula IV (527)], for which, on USP1 (HeLa cells incubated eight hours, increasing concentrations, FIG. 3), the “USP1 deubiquitinase activity (Ub-vinyl sulfone)” value was “dose-dependent blockade”. On USP1 (HeLa cells, 50 μM inhibitor for 2, 4, or 6 hours, lysates with Ub-Vs 40 minutes, FIG. 2), the “Ub-Vs conjugation of USP1 / deubiquitinase activity” value is “potent inhibitor of deubiquitinase activity”. Besides, in the series with HeLa cells, the “sensitization to the cytotoxic effects of MMC” value is “sensitization of the HeLa cells”. Besides, the “inhibitory effect on UCH-L3” value at UCH-L3 was “considerably less inhibitory effect”.
